Peptide text beside a SMILES is read from it. * marks the point of attachment. Cbz = O=C(OCc1ccccc1)*; CH2F = FC*
Assays:
HCT116 cells [1] = test: Screening for enhancers of IR-mediated cellular cannibalism (imaging flow cytometry, confocal microscopy validation); assay type: cell-based, human; settings: 8 Gray, 10 μM compound, 24 hours of culture
Description: FIG. 4 Identification of cannibalism modulators triggered by ionizing radiation. Compounds from the Prestwick (A) and CEA (F) libraries were tested for their capacities to induce cellular cannibalism after ionizing radiation. Cannibal cells were detected after homotypic cultures of 8 gray γ-irradiation HCT116 cells in the presence or absence of […] of the Prestwick (A) and CEA […] library compounds. Each dot represents one compound. Representative images are shown in (B, G). (C, H) HCT116 cells were treated with the indicated drugs. After 24 h of treatment, cell death was monitored by staining with 3,3 dihexyloxacarbocyanine iodide (DiOC6(3)) and PI, and the percentage of dying (DiOC6(3)^low PI^−, open bars) and dead (DiOC6(3)^low PI^+, closed bars) cells was determined by cytofluorometry. Validation of the cannibalism inducers by fluorescent microscopy. Representative images (D, I) and quantification (E, J) are shown. Results are means±s.e.m. of triplicate determinations.
Then, the screening of a library of chemical compounds was developed in order to identify compounds able to induce IR-mediated cellular cannibalism. Thus, HCT116 cells that have been treated with a radiation dose of 8 Gray were stained either with orange CMTMR cell tracker or green CMFDA cell tracker and cultivated in presence of 10 μM of chemical compounds. After 24 hours of culture, cells have been stained with nuclear dye (5 μg/ml of Hoechst 33342 during 1 h at 37° C.) and analyzed using the FlowSight® Imaging Flow Cytometer for cellular cannibalism. Each of these compounds were classified according to their Z-score^47 and identified respectively 13 and 11 candidate compounds (FIGS. 4A, 4B, 4F and 4G). Then, the identified compounds were validated by combining flow cytometry approaches (in order to eliminate cytotoxic compounds by simultaneously monitoring the depolarization of the internal mitochondrial membrane and the plasma membrane permeability of the treated cells) with confocal microscopy approaches (to confirm the modulation of IR-induced cellular cannibalism by candidate compounds) (FIGS. 4C-E and 4H-J). […] Finally, 16 chemical compounds that are able to enhance the capacity of IR to trigger cellular cannibalism were identified (FIGS. 4E and 4J, Tables 1&2).

CT26 cells = test: Anti-tumor vaccination assay, treated CT26 cells inoculated into BALB/c mice and rechallenge; assay type: in vivo, mouse; settings: 8 Gy in presence of 10 μM compound for 24 hours
Description: (§1) FIG. 5. Identification of cannibalism modulators as immunogenic cell death inducers. MCA205 (A) or CT26 (E, I, M, Q) cells were treated with the indicated drugs. After 24 h of coculture with the indicated treatment, cell death was monitored by staining DiOC6(3) and PI, and the percentage of dying (DiOC6(3)^low PI^−, open bars) and dead (DiOC6(3)^low PI^+, closed bars) cells was determined by cytofluorometry. (B-D) MCA205 cells or (F-H, J-L, N-P, R-T) CT26 cells cocultured after x irradiation with the indicated compounds were inoculated subcutaneously into the right flank of […] or BALB/c mice, respectively. Seven days later, the mice were rechallenged with live cells injected into the opposite flank, and tumor growth was monitored (five mice per group).
FIG. 6. Tumor vaccination experiments. CT26 cells were treated for 24 hours with 10 μM VP331 (A, F, K), 10 μM Minaprine (B, G, L), 10 μM Lopa87 (C, H, M), 10 μM SG6163F (D, I, N), 10 μM Azaguanine-8 (8-aza) (E, J, O) alone or combined with 8 Gy ionizing radiation and inoculated (s.c.) into immunocompetent BALB/c mice, which were rechallenged at the opposite flank 7 days later with the same cancer cells. The percentage of tumor-free mice was evaluated three times a week for the following 38 days. Percentage of total tumor free mice (A-E), tumor free-mice at the first injection site (F to J, P) or at the second injection site (K to O, Q) are shown. (*P<0.05, **P<0.01, ***P<0.001, two-way ANOVA).
Considering that immunogenic cell death (ICD) inducers were identified (such as Digoxin, Digitoxin, Lanatoside C or Doxorubicin hydrochloride)^3, 4, 48-51) as IRCCE, the ability of these compounds to induce an antitumor immunity after radiotherapy was evaluated. First, a preclinical approaches was developed to study the immunological effects of IRCCE on two mouse models of carcinoma (colon CT26 carcinoma and fibrosarcoma MCA205). Initially, the ability of the combination of IRCCE+IR to trigger a specific anti-tumor immune response was appreciated using immunocompetent mice through anti-tumor vaccination assays. According to previously published studies^52, the injection of cancer cells succumbing to an immunogenic cell death (ICD) into immunocompetent mice must elicit a protective immune response that is specific for tumor antigens. Thus, 3×10^5 MCA205 cells were first treated with 10 μM of SG6163F for 24 hours. Then, treated cells were inoculated subcutaneously in 200 μl PBS into the lower flank of 8-week-old female C57BL/6 mice. One week later, 3×10^4 untreated control cells were inoculated into the contralateral flank of mice. Tumors were evaluated weekly using a common caliper. Animals bearing tumors that exceeded 20-25% body mass were euthanatized. […] Then, 3×10^6 CT26 cells were irradiated with 8 Gy in presence of 10 μM of SG6163F (FIGS. 5E and 5F), VP331 (FIGS. 5I and 5J), Minaprine dihydrochloride (FIGS. 5M and 5N) or LOPA87 (FIGS. 5Q and 5R) for 24 hours. Then, cells were inoculated as previously described subcutaneously in 200 μl PBS into the lower flank of 8-week-old female BALB/c mice. One week later, 5×10^5 untreated control cells were inoculated into the contralateral flank of mice and tumors were evaluated weekly using a common caliper. As previously mentioned, animals bearing tumors that exceeded 20-25% body mass were euthanatized. The percentage of dying cells in each condition was evaluated by determining with DiOC(6)3/IP staining (FIGS. 5E, 5I, 5M and 5Q). Finally, the ability of these compounds to repress the growth of cancer cells that have been injected 7 days after injection of irradiated and treated cancer cells was appreciated.
A second anti-tumor vaccination assay was done on CT26 mouse models of carcinoma as previously described. […]

MCA205 cells [2] = test: Anti-tumor vaccination assay, treated MCA205 cells inoculated into C57BL/6 mice and rechallenge; assay type: in vivo, mouse
Description: as §1
(§2) Considering that immunogenic cell death (ICD) inducers were identified (such as Digoxin, Digitoxin, Lanatoside C or Doxorubicin hydrochloride)^3, 4, 48-51) as IRCCE, the ability of these compounds to induce an antitumor immunity after radiotherapy was evaluated. […] Tumors were evaluated weekly using a common caliper. […] One week later, 5×10^5 untreated control cells were inoculated into the contralateral flank of mice and tumors were evaluated weekly using a common caliper. […] The percentage of dying cells in each condition was evaluated by determining with DiOC(6)3/IP staining (FIGS. 5E, 5I, 5M and 5Q). […]

MCA205 cells [3] = test: Cell death monitoring by DiOC6(3)/PI staining; assay type: cell-based, mouse
Description: as §1, §2

HCT116 cells [4] = test: Cell death profiling by quantitative flow imaging of co-cultured irradiated and non-irradiated cells; assay type: cell-based, human; settings: 4 grays, 24 hour co-culture; for Engulfment of neighboring cells by gamma-irradiated CMFDA+ cells (cell-in-cell internalization): Y27632 30 μM; for Engulfment of neighboring cells by gamma-irradiated CMFDA+ cells (cell-in-cell internalization) / Exposure of PS on the outer plasma membrane of irradiated CMFDA+ cells: Z-VAD-fmk 100 μM; for Exposure of PS on the outer plasma membrane of irradiated CMFDA+ cells: Roscovitine 10 μM
Description: Untreated HCT116 cells were labeled with CMFDA (green fluorescence, CMFDA^+) or CMTMR, (red fluorescence, CMTMR^+) and treated HCT116 cells with CMFDA (green fluorescence, CMFDA^+). The following cell mixtures were performed: untreated CMTMR^+ HCT116 cells were mixed with untreated CMFDA^+ HCT116 cells, or untreated CMTMR^+ HCT116 cells were mixed with treated CMFDA^+ HCT116 cells. Then, cells were co-cultured during 24 hours in the presence or absence of the pharmacological inhibitor of ROCK, Y27632 (30 μM), the pan-caspase inhibitor, Z-VAD-fmk (ZVAD, 100 μM), the inhibitor of caspase-1, Ac-YVAD-cmk (YVAD, 100 μM), the necroptosis inhibitor, Necrostatin-1 (NEC 1, 30 μM), the inhibitor of the vacuolar type H(+)-ATPase (V-ATPase) inhibiting autophagy, Bafilomycin A1 (BafA1, 50 nM), the inhibitor of Cdks with an anti-mitotic activity, Roscovitine (Rosco, 10 μM). After 24 hours of co-culture, both detached and adherent cells were collected and stained with Hoechst 33345 ([…]) during 1 hour at 37° C. in warmed complete medium. To detect phosphatidylserine (PS) exposure and plasma membrane permeability, labeled HCT116 cells were successively incubated with Biotin-AnnexinV (BD Pharmingen) as recommended by manufacturer, […] BV786-Streptavidin (BD Biosciences) and […] DRAQ7 (BioStatus) during 15 minutes at 25° C. After washing with PBS solution, samples were immediately analyzed using an imaging flow cytometer FlowSight® (Amnis®, part of EMD Millipore). Data were acquired at a 20× magnification, using INSPIRE software. The 405 nm, 488 nm, and 561 nm lasers were used for excitation. Brightfield, Annexin V-BV786, DRAQ7, CMFDA, CMTMR and Hoechst 33345 stainings were detected using respectively channels for 420-480 nm, 745-800 nm, 642-745 nm, 480-560 nm, 595-642 nm and 430-505 nm. At least 1000 events of cells per sample were analyzed. Additional single-labeled controls were prepared to normalize fluorescent signal across different channels. Acquired data were analyzed using the IDEAS analysis software (v6.1; Merck-Millipore). Gating strategy was the following. Cells were gated for focused cells using the Gradient RMS feature. Cells were gated for single cells using the aspect ratio and area features. For the cannibalism detection, cells were gated in the double positive CMFDA^+ and CMTMR^+ staining.
To detect PS exposure, plasma membrane permeability and cell cycle progression, cells were after co-culture sequentially labeled with specific fluorescent probes (such as FITC-conjugated AnnexinV, propidium iodide, and Hoechst 33342) and analyzed by flow cytometry. Both detached and adherent cells were collected and stained with Hoechst 33345 (10 ug/ml) during 1 hour at 37° C. in warmed complete medium. After washing with PBS, HCT116 cells were suspended in 1X binding buffer supplemented with fluorescein isothiocyanate (FITC)-conjugated Annexin V (BD Biosciences) and propidium iodide (PI, 1 μg/mL) (Sigma), as per manufacturer's instructions. Samples were then analyzed using LSRII flow cytometer (Becton Dickinson) and the FlowJo software v10. For confocal fluorescence microscopy, HCT116 cells were fixed after co-culture in 3,7% paraformaldehyde-PBS for 15 minutes and counterstained with 1 μg/mL Hoechst 33342 (Invitrogen) for 15 minutes. Then, cells were analyzed by confocal SPE microscope equipped with Apochromat 63×1.3 NA and 63×1.15 NA oil immersion objectives. The Leica Application Suite (LAS) software was used (Leica Microsystems).
Considering the diversity of lethal stimuli that can potentially initiate both non-cell autonomous and cell autonomous cell death modalities and the complexity of signaling pathways (involving (or not) caspases, cathepsins or granzymes) that control both processes, it was decided to simultaneously detect non-cell autonomous and cell autonomous death modalities elicited by IR. […]

Question: Which “Enhancement of IR-mediated cellular cannibalism (IRCCE)” value (HCT116 cells [1]) does the source give for `O=C1NC(c2ccccc2)=N/C1=C\c1cc2ccccc2c2ccccc12` [SG6163F] here?
Answer: The value was “efficient cellular cannibalism enhancer”.

Question: And the “Frequency of mice showing a protective response” value (CT26 cells; first assay: CT26 cells, rechallenge one week later)?
Answer: The value was “significant increase in the frequency of mice showing a protective response”.

Question: What about the “Frequency of mice showing a protective response” value (CT26 cells; second assay: CT26 cells, rechallenge 7 days later) of the same compound?
Answer: The value was “Significant increases in the frequency of mice showing a protective response”.

Question: What about the “Protective response after inoculation of untreated cells” value (MCA205 cells [2]; MCA205 cells treated with 10 μM compound alone, rechallenge one week later) of the same compound?
Answer: Its value is “did not exhibit a protective response”.

Question: And the “Mice with protective response” value (MCA205 cells [2]; MCA205 cells treated with 8 Gy of IR and 10 μM compound)?
Answer: Its value is 3 of 5.

Question: What about the “Increase of cell death in vitro” value (MCA205 cells [3]; 10 μM compound alone, 24 hours) of the same compound?
Answer: Its value is “not able to induce a significant increase of cell death”.

Question: What about the “Increase of death of treated and irradiated cells” value (MCA205 cells [3]; 8 Gy of IR and 10 μM compound) of the same compound?
Answer: The value was “absence of a significant increase of death”.

Question: How did the “Engulfment of neighboring cells by gamma-irradiated CMFDA+ cells (cell-in-cell internalization)” value (HCT116 cells [4]) turn out when `C[C@@H](N)[C@H]1CC[C@H](C(=O)Nc2ccncc2)CC1` [Y27632] was run?
Answer: The value was “repressed”.

Question: With `COC(=O)CC(NC(=O)C(C)NC(=O)C(NC(=O)OCc1ccccc1)C(C)C)C(=O)CF` (stereo not drawn) [Z-VAD-fmk, Benzyloxycarbonyl-Val-Ala-Asp(OMe)-fluoromethylketone] (Cbz-Val-Ala-Asp(OMe)-CH2F; configuration not given here) as the compound, how does the “Engulfment of neighboring cells by gamma-irradiated CMFDA+ cells (cell-in-cell internalization)” value (HCT116 cells [4]) read?
Answer: Its value is “not affected”.

Question: And the “Exposure of PS on the outer plasma membrane of irradiated CMFDA+ cells” value (HCT116 cells [4])?
Answer: Its value is “inhibited the exposure of PS”.

Question: And the “Cellular degradation of engulfed CMTMR+ cells” value (HCT116 cells [4]; inhibitors 100 μM)?
Answer: The value was “significantly reduced”.

Question: `CO/C1=C\C(C)=C\[C@@H](C)[C@@H](O)[C@@H](C)C/C(C)=C/C=C/[C@H](OC)[C@@H]([C@@H](C)[C@@H](O)[C@H](C)[C@@]2(O)C[C@@H](O)[C@H](C)[C@@H](C(C)C)O2)OC1=O` [bafilomycin A1, Bafilomycin A1] was tested. Which “Frequency of dying cells (AnnexinV+DRAQ7- and DRAQ7+ cells)” value (HCT116 cells [4]; total, non-irradiated CMTMR+ and irradiated CMFDA+ cells, BafA1 50 nM) did it give?
Answer: Its value is “increased the frequency of dying cells”.

Question: With `CC[C@H](CO)Nc1nc(NCc2ccccc2)c2ncn(C(C)C)c2n1` [roscovitine, Roscovitine] as the compound, how does the “Exposure of PS on the outer plasma membrane of irradiated CMFDA+ cells” value (HCT116 cells [4]) read?
Answer: The value was “inhibited the exposure of PS”.

From patent US11471463B2, “Enhancers of cellular cannibalism for use to sensitize tumors to radiation therapy” (Institut Gustave-Roussy, priority 2017, dated 2022)
